In PubChem BioAssay (NCI):
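Each compound was tested at five concentrations against cells in 96-well plates for 48 hours. TGI denotes the concentration required for complete inhibition of growth.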

Tests used:
Assay in all cases: growth of human tumour cells (NCI), 48 h
OVCAR-5 ovarian = system: OVCAR-5 ovarian
HOP-92 NSCLC = system: HOP-92 NSCLC
UO-31 renal = system: UO-31 renal
MCF7 breast = system: MCF7 breast
ACHN renal = system: ACHN renal
OVCAR-4 ovarian = system: OVCAR-4 ovarian
SK-MEL-28 melanoma = system: SK-MEL-28 melanoma
M14 melanoma = system: M14 melanoma
COLO 205 colon = system: COLO 205 colon
UACC-62 melanoma = system: UACC-62 melanoma
OVCAR-8 ovarian = system: OVCAR-8 ovarian
SF-295 CNS = system: SF-295 CNS
SR leukemia = system: SR leukemia
HL-60(TB) leukemia = system: HL-60(TB) leukemia
SK-OV-3 ovarian = system: SK-OV-3 ovarian
NCI-H460 lung = system: NCI-H460 lung
NCI-H522 lung = system: NCI-H522 lung
SN12C renal = system: SN12C renal
NCI-H226 lung = system: NCI-H226 lung
SNB-75 CNS = system: SNB-75 CNS
T-47D breast = system: T-47D breast
NCI/ADR-RES ovarian = system: NCI/ADR-RES ovarian
LOX IMVI melanoma = system: LOX IMVI melanoma
786-0 renal = system: 786-0 renal
PC-3 prostate = system: PC-3 prostate
HS 578T breast = system: HS 578T breast
U251 CNS = system: U251 CNS
RPMI-8226 leukemia = system: RPMI-8226 leukemia
DU-145 prostate = system: DU-145 prostate
MDA-MB-435 = system: MDA-MB-435
A549 NSCLC = system: A549 NSCLC
HCC-2998 colon = system: HCC-2998 colon
HCT-15 colon = system: HCT-15 colon
HOP-62 NSCLC = system: HOP-62 NSCLC
MDA-N = system: MDA-N
K-562 leukemia = system: K-562 leukemia
UACC-257 melanoma = system: UACC-257 melanoma
HCT-116 colon = system: HCT-116 colon
EKVX NSCLC = system: EKVX NSCLC
RXF 393 renal = system: RXF 393 renal
MALME-3M melanoma = system: MALME-3M melanoma
SF-539 CNS = system: SF-539 CNS
SW-620 colon = system: SW-620 colon
SNB-19 CNS = system: SNB-19 CNS
MOLT-4 leukemia = system: MOLT-4 leukemia
HT29 colon = system: HT29 colon
SF-268 CNS = system: SF-268 CNS
MDA-MB-231 breast = system: MDA-MB-231 breast
BT-549 breast = system: BT-549 breast
CCRF-CEM leukemia = system: CCRF-CEM leukemia
SK-MEL-5 melanoma = system: SK-MEL-5 melanoma
SK-MEL-2 melanoma = system: SK-MEL-2 melanoma
IGROV1 ovarian = system: IGROV1 ovarian
TK-10 renal = system: TK-10 renal
KM12 colon = system: KM12 colon
CAKI-1 renal = system: CAKI-1 renal
A498 renal = system: A498 renal
OVCAR-3 ovarian = system: OVCAR-3 ovarian
NCI-H23 lung = system: NCI-H23 lung

In the case of `CN(C)c1ccc(-c2nc(-c3cc4c(ccc5ccccc54)oc3=O)cs2)cc1`, the TGI (OVCAR-5 ovarian) is reported as greater than 100 µM, the TGI (HOP-92 NSCLC) is reported as greater than 100 µM and the TGI (UO-31 renal) is reported as greater than 100 µM. The TGI (MCF7 breast) was greater than 100 µM, the TGI (ACHN renal) was greater than 100 µM and the TGI (OVCAR-4 ovarian) was greater than 100 µM. The TGI (SK-MEL-28 melanoma) was greater than 100 µM, the TGI (M14 melanoma) was greater than 100 µM and the TGI (COLO 205 colon) was greater than 100 µM. The TGI (UACC-62 melanoma) was greater than 100 µM, the TGI (OVCAR-8 ovarian) was greater than 100 µM and the TGI (SF-295 CNS) was greater than 100 µM. The TGI (SR leukemia) was greater than 100 µM, the TGI (HL-60(TB) leukemia) was greater than 100 µM and the TGI (SK-OV-3 ovarian) was greater than 100 µM. It also gave a TGI (NCI-H460 lung) greater than 100 µM, a TGI (NCI-H522 lung) greater than 100 µM and a TGI (SN12C renal) greater than 100 µM. The TGI (NCI-H226 lung) was greater than 100 µM, the TGI (SNB-75 CNS) was greater than 100 µM and the TGI (T-47D breast) was greater than 100 µM. The TGI (NCI/ADR-RES ovarian) was greater than 100 µM, the TGI (LOX IMVI melanoma) was greater than 100 µM and the TGI (786-0 renal) was greater than 100 µM. For the same compound, the TGI (PC-3 prostate) was greater than 100 µM, the TGI (HS 578T breast) was greater than 100 µM and the TGI (U251 CNS) was greater than 100 µM. It also gave a TGI (RPMI-8226 leukemia) greater than 100 µM, a TGI (DU-145 prostate) greater than 100 µM and a TGI (MDA-MB-435) greater than 100 µM. It also gave a TGI (A549 NSCLC) greater than 100 µM, a TGI (HCC-2998 colon) greater than 100 µM and a TGI (HCT-15 colon) greater than 100 µM. The TGI (HOP-62 NSCLC) was greater than 100 µM, the TGI (MDA-N) was greater than 100 µM and the TGI (K-562 leukemia) was greater than 100 µM. For the same compound, the TGI (UACC-257 melanoma) was greater than 100 µM, the TGI (HCT-116 colon) was greater than 100 µM and the TGI (EKVX NSCLC) was greater than 100 µM. The TGI (RXF 393 renal) was greater than 100 µM, the TGI (MALME-3M melanoma) was greater than 100 µM and the TGI (SF-539 CNS) was greater than 100 µM. For the same compound, the TGI (SW-620 colon) was greater than 100 µM, the TGI (SNB-19 CNS) was greater than 100 µM and the TGI (MOLT-4 leukemia) was greater than 100 µM. For the same compound, the TGI (HT29 colon) was greater than 100 µM, the TGI (SF-268 CNS) was greater than 100 µM and the TGI (MDA-MB-231 breast) was greater than 100 µM. For the same compound, the TGI (BT-549 breast) was greater than 100 µM, the TGI (CCRF-CEM leukemia) was greater than 100 µM and the TGI (SK-MEL-5 melanoma) was greater than 100 µM. For the same compound, the TGI (SK-MEL-2 melanoma) was greater than 100 µM, the TGI (IGROV1 ovarian) was greater than 100 µM and the TGI (TK-10 renal) was greater than 100 µM. It also gave a TGI (KM12 colon) greater than 100 µM and a TGI (CAKI-1 renal) greater than 100 µM.

For `CN(C)c1ccc(/C=C(\NC(=O)c2ccccc2)C(=O)Nc2ccccc2C(=O)NN2C(=O)CSC2c2ccc(N(C)C)cc2)cc1` (stereo not given), the TGI (OVCAR-5 ovarian) was greater than 100 µM, the TGI (HOP-92 NSCLC) was greater than 100 µM and the TGI (UO-31 renal) was greater than 100 µM. The TGI (MCF7 breast) was greater than 100 µM, the TGI (ACHN renal) was greater than 100 µM and the TGI (SK-MEL-28 melanoma) was greater than 100 µM. The TGI (M14 melanoma) was greater than 100 µM, the TGI (COLO 205 colon) was greater than 100 µM and the TGI (UACC-62 melanoma) was greater than 100 µM. The TGI (OVCAR-8 ovarian) was greater than 100 µM, the TGI (SF-295 CNS) was greater than 100 µM and the TGI (SR leukemia) was greater than 100 µM. For the same compound, the TGI (HL-60(TB) leukemia) was greater than 100 µM, the TGI (A498 renal) was greater than 100 µM and the TGI (SK-OV-3 ovarian) was greater than 100 µM. The TGI (NCI-H460 lung) was 31.7 µM, the TGI (NCI-H522 lung) was greater than 100 µM and the TGI (SN12C renal) was greater than 100 µM. For the same compound, the TGI (NCI-H226 lung) was greater than 100 µM, the TGI (SNB-75 CNS) was greater than 100 µM and the TGI (T-47D breast) was greater than 100 µM. It also gave a TGI (NCI/ADR-RES ovarian) greater than 100 µM, a TGI (LOX IMVI melanoma) greater than 100 µM and a TGI (786-0 renal) greater than 100 µM. For the same compound, the TGI (OVCAR-3 ovarian) was greater than 100 µM, the TGI (PC-3 prostate) was greater than 100 µM and the TGI (HS 578T breast) was greater than 100 µM. It also gave a TGI (U251 CNS) greater than 100 µM, a TGI (RPMI-8226 leukemia) greater than 100 µM and a TGI (DU-145 prostate) greater than 100 µM. It also gave a TGI (MDA-MB-435) greater than 100 µM, a TGI (A549 NSCLC) greater than 100 µM and a TGI (NCI-H23 lung) greater than 100 µM. It also gave a TGI (HCC-2998 colon) of 21.4 µM, a TGI (HCT-15 colon) greater than 100 µM and a TGI (HOP-62 NSCLC) greater than 100 µM. For the same compound, the TGI (MDA-N) was greater than 100 µM, the TGI (K-562 leukemia) was greater than 100 µM and the TGI (UACC-257 melanoma) was 32.2 µM. The TGI (HCT-116 colon) was greater than 100 µM, the TGI (EKVX NSCLC) was greater than 100 µM and the TGI (RXF 393 renal) was greater than 100 µM. It also gave a TGI (MALME-3M melanoma) greater than 100 µM, a TGI (SF-539 CNS) greater than 100 µM and a TGI (SW-620 colon) greater than 100 µM. It also gave a TGI (SNB-19 CNS) greater than 100 µM, a TGI (MOLT-4 leukemia) greater than 100 µM and a TGI (HT29 colon) greater than 100 µM. The TGI (SF-268 CNS) was greater than 100 µM, the TGI (MDA-MB-231 breast) was greater than 100 µM and the TGI (BT-549 breast) was greater than 100 µM. The TGI (CCRF-CEM leukemia) was greater than 100 µM, the TGI (SK-MEL-5 melanoma) was greater than 100 µM and the TGI (SK-MEL-2 melanoma) was greater than 100 µM. It also gave a TGI (IGROV1 ovarian) greater than 100 µM, a TGI (KM12 colon) greater than 100 µM and a TGI (CAKI-1 renal) greater than 100 µM.

`O=c1oc2ccccc2cc1-c1nc2ccc([N+](=O)[O-])cc2o1` was tested, and the TGI (HOP-92 NSCLC) was greater than 100 µM, the TGI (UO-31 renal) was greater than 100 µM and the TGI (MCF7 breast) was greater than 100 µM. It also gave a TGI (ACHN renal) of 80.9 µM, a TGI (SK-MEL-28 melanoma) greater than 100 µM and a TGI (M14 melanoma) greater than 100 µM. For the same compound, the TGI (COLO 205 colon) was greater than 100 µM, the TGI (UACC-62 melanoma) was greater than 100 µM and the TGI (OVCAR-8 ovarian) was greater than 100 µM. It also gave a TGI (SF-295 CNS) greater than 100 µM, a TGI (SR leukemia) greater than 100 µM and a TGI (HL-60(TB) leukemia) greater than 100 µM. For the same compound, the TGI (A498 renal) was greater than 100 µM, the TGI (SK-OV-3 ovarian) was greater than 100 µM and the TGI (NCI-H460 lung) was greater than 100 µM. For the same compound, the TGI (NCI-H522 lung) was greater than 100 µM, the TGI (SN12C renal) was greater than 100 µM and the TGI (NCI-H226 lung) was greater than 100 µM. The TGI (SNB-75 CNS) was greater than 100 µM, the TGI (T-47D breast) was greater than 100 µM and the TGI (NCI/ADR-RES ovarian) was greater than 100 µM. It also gave a TGI (LOX IMVI melanoma) greater than 100 µM, a TGI (786-0 renal) greater than 100 µM and a TGI (OVCAR-3 ovarian) greater than 100 µM. It also gave a TGI (PC-3 prostate) greater than 100 µM, a TGI (HS 578T breast) greater than 100 µM and a TGI (U251 CNS) greater than 100 µM. For the same compound, the TGI (RPMI-8226 leukemia) was greater than 100 µM, the TGI (DU-145 prostate) was greater than 100 µM and the TGI (MDA-MB-435) was greater than 100 µM. It also gave a TGI (A549 NSCLC) greater than 100 µM, a TGI (NCI-H23 lung) greater than 100 µM and a TGI (HCC-2998 colon) greater than 100 µM. For the same compound, the TGI (HCT-15 colon) was greater than 100 µM, the TGI (HOP-62 NSCLC) was greater than 100 µM and the TGI (MDA-N) was greater than 100 µM. For the same compound, the TGI (K-562 leukemia) was greater than 100 µM, the TGI (UACC-257 melanoma) was greater than 100 µM and the TGI (HCT-116 colon) was greater than 100 µM. It also gave a TGI (EKVX NSCLC) greater than 100 µM, a TGI (RXF 393 renal) greater than 100 µM and a TGI (MALME-3M melanoma) greater than 100 µM. For the same compound, the TGI (SF-539 CNS) was greater than 100 µM, the TGI (SW-620 colon) was greater than 100 µM and the TGI (SNB-19 CNS) was 68.5 µM. The TGI (MOLT-4 leukemia) was greater than 100 µM, the TGI (HT29 colon) was greater than 100 µM and the TGI (SF-268 CNS) was greater than 100 µM. It also gave a TGI (MDA-MB-231 breast) greater than 100 µM, a TGI (BT-549 breast) greater than 100 µM and a TGI (CCRF-CEM leukemia) greater than 100 µM. For the same compound, the TGI (SK-MEL-5 melanoma) was greater than 100 µM, the TGI (SK-MEL-2 melanoma) was greater than 100 µM and the TGI (IGROV1 ovarian) was greater than 100 µM. The TGI (TK-10 renal) was greater than 100 µM, the TGI (KM12 colon) was greater than 100 µM and the TGI (CAKI-1 renal) was greater than 100 µM.
